These compounds were tested on HCV pseudoparticles (genotype 1a HCV E1 and E2 envelope, H77C isolate) (assay: microbe, parasite or virus in culture). Conditions: Hepatitis C virus, Huh-7, 48 h, HCV pseudoparticle infection of Huh7 cells, luciferase 2 days after infection; average of duplicates.
Format: cell-based

Structure (SMILES)	EC50
C[C@H]1[C@H]2C[C@@H](C[C@H]1NC(=O)C(=O)NCC[C@H](NC(=O)c1ccc(Nc3nc(NC4(c5ccc(Cl)cc5)CC4)nc(OCC(F)(F)F)n3)cc1)C(=O)O)C2(C)C [Compound 1130]	0.12 nM

Same assay, conditions: Hepatitis C virus, Huh-7, 48 h, HCV pseudoparticles (genotype 1a, H77C) in Huh7 cells; average of duplicate; luciferase 2 days after infection

Structure (SMILES)	EC50
CC(C)(CNC(=O)c1ccc(Nc2nc(NC3(c4ccc(Cl)cc4)CC3)nc(OCC(F)(F)F)n2)cc1)NC(=O)C(=O)Nc1ccccc1 [Compound 3425]	0.033 nM
Cc1cc(C)nc(N(C)c2ccc(NC(=O)C(=O)NCC[C@H](NC(=O)c3ccc(Nc4nc(NC5(c6ccc(Cl)cc6)CC5)nc(OCC(F)(F)F)n4)cc3)C(=O)O)cc2)n1 [Compound 3234]	0.24 nM

Same assay, conditions: Hepatitis C virus, Huh-7, 48 h, read-out: Activity (EC50 class), HCV pseudoparticle infection of Huh7 cells, luciferase 2 days after infection; EC50 expressed as class A/B

Structure (SMILES)	EC50
C[C@H]1[C@H]2C[C@@H](C[C@H]1NC(=O)C(=O)NCC[C@H](NC(=O)c1ccc(Nc3nc(NC4(c5ccc(Cl)cc5)CC4)nc(OCC(F)(F)F)n3)cc1)C(=O)O)C2(C)C [Compound 1130]	0.01 to 10 nM
CCC(CC)NC(=O)C(=O)NC[C@H](NC(=O)c1ccc(Nc2nc(NC3(c4ccc(Cl)cc4)CC3)nc(OCC(F)(F)F)n2)cc1)C(=O)O [Compound 1091]	0.01 to 10 nM
COC(=O)C(CNC(=O)C(=O)NC1CCC(O)CC1)NC(=O)c1ccc(Nc2nc(NC3(c4ccc(Cl)cc4)CC3)nc(OCC(F)(F)F)n2)cc1 (stereo not drawn) [Compound 1048]	0.01 to 10 nM
COC(=O)[C@H](CCNC(=O)C(=O)NC1CCCC(C)C1)NC(=O)c1ccc(Nc2nc(NC3(c4ccc(Cl)cc4)CC3)nc(OCC(F)(F)F)n2)cc1 (stereo partly drawn) [Compound 1076]	0.01 to 10 nM
CC(C)(CNC(=O)C(=O)Nc1ccc(CC(=O)O)cc1)CNC(=O)c1ccc(Nc2nc(NC3(c4ccc(Cl)cc4)CC3)nc(OCC(F)(F)F)n2)cc1 [Compound 1481]	0.01 to 10 nM
O=C(NC[C@H](NC(=O)c1ccc(Nc2nc(NC3(c4ccc(Cl)cc4)CC3)nc(OCC(F)(F)F)n2)cc1)C(=O)O)C(=O)Nc1ccccc1F [Compound 1361]	0.01 to 10 nM
COC(=O)[C@H](CNC(=O)C(=O)NCc1ccccc1OC)NC(=O)c1ccc(Nc2nc(NC3(c4ccc(Cl)cc4)CC3)nc(OCC(F)(F)F)n2)cc1 [Compound 1150]	0.01 to 10 nM
COC(=O)[C@H](CCNC(=O)C(=O)NCC1(C2CCCCC2)CC1)NC(=O)c1ccc(Nc2nc(NC3(c4ccc(Cl)cc4)CC3)nc(OCC(F)(F)F)n2)cc1 [Compound 1203]	0.01 to 10 nM
COC(=O)[C@H](CNC(=O)C(=O)NCC(C)c1ccccc1)NC(=O)c1ccc(Nc2nc(NC3(c4ccc(Cl)cc4)CC3)nc(OCC(F)(F)F)n2)cc1 (stereo partly drawn) [Compound 1283]	0.01 to 10 nM
CC(C)(CNC(=O)C(=O)Nc1cccc(-c2ccc(Cl)cc2)c1)CNC(=O)c1ccc(Nc2nc(NC3(c4ccc(Cl)cc4)CC3)nc(OCC(F)(F)F)n2)cc1 [Compound 1586]	0.01 to 10 nM
O=C(NCC[C@H](NC(=O)c1ccc(Nc2nc(NC3(c4ccc(Cl)cc4)CC3)nc(OCC(F)(F)F)n2)cc1)C(=O)O)C(=O)NCC1CCCc2ccccc21 (stereo partly drawn) [Compound 1343]	0.01 to 10 nM
O=C(NCC[C@H](NC(=O)c1ccc(Nc2nc(NC3(c4ccc(Cl)cc4)CC3)nc(OCC(F)(F)F)n2)cc1)C(=O)O)C(=O)Nc1cccnc1 [Compound 1280]	0.01 to 10 nM
CN(C)C(=O)C(=O)NCC(C)(C)CNC(=O)c1ccc(Nc2nc(NC3(c4ccc(Cl)cc4)CC3)nc(OCC(F)(F)F)n2)cc1 [Compound 1008, N1-(3-(4-(4-(1-(4-chlorophenyl)cyclopropylamino)-6-(2,2,2-trifluoroethoxy)-1,3,5-triazin-2-ylamino)benzamido)-2,2-dimethylpropyl)-N2,N2-dimethyloxalamide]	0.01 to 10 nM
O=C(NCCc1cccc(F)c1)C(=O)NC[C@H](NC(=O)c1ccc(Nc2nc(NC3(c4ccc(Cl)cc4)CC3)nc(OCC(F)(F)F)n2)cc1)C(=O)O [Compound 1401]	0.01 to 10 nM
COC(=O)[C@H](CNC(=O)C(=O)Nc1ccc(F)cc1)NC(=O)c1ccc(Nc2nc(NC3(c4ccc(Cl)cc4)CC3)nc(OCC(F)(F)F)n2)cc1 [Compound 1252]	0.01 to 10 nM
CC(C)(C)OC(=O)NC1CCC(CNC(=O)C(=O)NCC[C@H](NC(=O)c2ccc(Nc3nc(NC4(c5ccc(Cl)cc5)CC4)nc(OCC(F)(F)F)n3)cc2)C(=O)O)CC1 (stereo partly drawn) [Compound 1210]	0.01 to 10 nM
O=C(NCC[C@H](NC(=O)c1ccc(Nc2nc(NC3(c4ccc(Cl)cc4)CC3)nc(OCC(F)(F)F)n2)cc1)C(=O)O)C(=O)NCC1CCCCCC1 [Compound 1207]	0.01 to 10 nM
COC(=O)[C@H](CCNC(=O)C(=O)Nc1ccc(F)c(F)c1F)NC(=O)c1ccc(Nc2nc(NC3(c4ccc(Cl)cc4)CC3)nc(OCC(F)(F)F)n2)cc1 [Compound 1508]	0.01 to 10 nM
CNC(=O)C(=O)NC[C@H](NC(=O)c1ccc(Nc2nc(NC3(c4ccc(Cl)cc4)CC3)nc(OCC(F)(F)F)n2)cc1)C(=O)OC [Compound 1003, (S)-methyl 2-(4-(4-(1-(4-chlorophenyl)cyclopropylamino)-6-(2,2,2-trifluoroethoxy)-1,3,5-triazin-2-ylamino)benzamido)-3-(2-(methylamino)-2-oxoacetamido)propanoate]	0.01 to 10 nM
COC(=O)[C@H](CCNC(=O)C(=O)NC1CCC(O)CC1)NC(=O)c1ccc(Nc2nc(NC3(c4ccc(Cl)cc4)CC3)nc(OCC(F)(F)F)n2)cc1 (stereo partly drawn) [Compound 1073]	0.01 to 10 nM
Cc1ccc(CCNC(=O)C(=O)NC[C@H](NC(=O)c2ccc(Nc3nc(NC4(c5ccc(Cl)cc5)CC4)nc(OCC(F)(F)F)n3)cc2)C(=O)O)cc1 [Compound 1404]	0.01 to 10 nM

Same assay, conditions: Hepatitis C virus, Huh-7, 48 h, read-out: Activity (EC50 class), HCV pseudoparticles, Huh7 cells, luciferase 2 days after infection; average of duplicates

Structure (SMILES)	EC50
COC(=O)[C@H](CNC(=O)C(=O)Nc1cccc(-c2nncn2C)c1)NC(=O)c1ccc(Nc2nc(NC3(c4ccc(Cl)cc4)CC3)nc(OCC(F)(F)F)n2)cc1 [Compound 3719]	0.01 to 10 nM
O=C(NC[C@H](NC(=O)c1ccc(Nc2nc(NC3(c4ccc(Cl)cc4)CC3)nc(OCC(F)(F)F)n2)cc1)C(=O)Cl)C(=O)Nc1cccc(-n2ccnc2)c1 [Compound 3789]	0.01 to 10 nM
Cc1ccc(NC(=O)C(=O)NCC(C)(C)CNC(=O)c2ccc(Nc3nc(NC4(c5ccc(Cl)cc5)CC4)nc(OCc4ccc(OC(F)F)cc4)n3)cc2)cc1 [Compound 3840]	0.01 to 10 nM
O=C(NC[C@H](NC(=O)c1ccc(Nc2nc(NC3(c4ccc(Cl)cc4)CC3)nc(OCC(F)(F)F)n2)cc1)C(=O)O)C(=O)Nc1cccc(-c2ccncc2)c1 [Compound 3768]	0.01 to 10 nM
COC(=O)[C@H](CNC(=O)C(=O)Nc1ccc(Oc2ccccc2)nc1)NC(=O)c1ccc(Nc2nc(NC3(c4ccc(Cl)cc4)CC3)nc(OCC(F)(F)F)n2)cc1 [Compound 3715]	0.01 to 10 nM
COC(=O)[C@H](CNC(=O)C(=O)Nc1ccc(O)nc1)NC(=O)c1ccc(Nc2nc(NC3(c4ccc(Cl)cc4)CC3)nc(OCC(F)(F)F)n2)cc1 [Compound 3722]	0.01 to 10 nM

Same assay, conditions: Hepatitis C virus, Huh-7, read-out: Activity (EC50 class), HCV pseudoparticles (genotype 1a, H77C) in Huh7 cells; EC50 expressed as class A/B

Structure (SMILES)	EC50
CC(C)(CNC(=O)c1ccc(Nc2nc(NC3(c4ccc(Cl)cc4)CC3)nc(OCC(F)(F)F)n2)cc1)NC(=O)C(=O)Nc1ccccc1 [Compound 3425]	0.01 to 10 nM
CC(C)(CNC(=O)C(=O)Nc1ccc(Cl)c(F)c1)CNC(=O)c1ccc(Nc2nc(NC3(c4ccc(Cl)cc4)CC3)nc(OCC(F)(F)F)n2)cc1 [Compound 3071]	0.01 to 10 nM
NC(=O)C(=O)N(CCO)CCCNC(=O)c1ccc(Nc2nc(NC3(c4ccc(Cl)cc4)CC3)nc(OCC(F)(F)F)n2)cc1 [Compound 3498]	0.01 to 10 nM
CC(CNC(=O)C(=O)N1CCc2ccccc2C1)CNC(=O)c1ccc(Nc2nc(NC3(c4ccc(Cl)cc4)CC3)nc(OCC(F)(F)F)n2)cc1 (stereo not drawn) [Compound 3471]	0.01 to 10 nM
CC(C)(CNC(=O)C(=O)Nc1ccc(C#N)cc1F)CNC(=O)c1ccc(Nc2nc(NC3(c4ccc(Cl)cc4)CC3)nc(OCC(F)(F)F)n2)cc1 [Compound 3383]	0.01 to 10 nM
O=C(NC[C@H](NC(=O)c1ccc(Nc2nc(NC3(c4ccc(Cl)cc4)CC3)nc(OCC(F)(F)F)n2)cc1)C(=O)O)C(=O)Nc1ccc(-c2ccncc2)cc1 [Compound 3266]	0.01 to 10 nM
CC(C)(CNC(=O)C(=O)Nc1ccc(Cl)c(F)c1)CNC(=O)c1ccc(Nc2nc(NC3(c4ccc(Cl)cc4)CC3)nc(OCC(F)(F)F)n2)cc1F [Compound 3513]	0.01 to 10 nM
Cc1cc(C)n(-c2ccccc2NC(=O)C(=O)NCC(C)(C)CNC(=O)c2ccc(Nc3nc(NC4(c5ccc(Cl)cc5)CC4)nc(OCC(F)(F)F)n3)cc2)n1 [Compound 3177]	0.01 to 10 nM
Cc1cc(C)nc(N(C)c2ccc(NC(=O)C(=O)NCC[C@H](NC(=O)c3ccc(Nc4nc(NC5(c6ccc(Cl)cc6)CC5)nc(OCC(F)(F)F)n4)cc3)C(=O)O)cc2)n1 [Compound 3234]	0.01 to 10 nM
O=C(Nc1cc(F)cc(F)c1)C(=O)N(CCO)CCCNC(=O)c1ccc(Nc2nc(NC3(c4ccc(Cl)cc4)CC3)nc(OCC(F)(F)F)n2)cc1 [Compound 3507]	0.01 to 10 nM
CC(C)CNC(=O)C(=O)NCC(C)CNC(=O)c1ccc(Nc2nc(NC3(c4ccc(Cl)cc4)CC3)nc(OCC(F)(F)F)n2)cc1 (stereo not drawn) [Compound 3476]	0.01 to 10 nM
CN(CCCNC(=O)c1ccc(Nc2nc(NC3(c4ccc(Cl)cc4)CC3)nc(OCC(F)(F)F)n2)cc1)C(=O)C(=O)Nc1cccc(F)c1 [Compound 3443]	0.01 to 10 nM
CCOC(=O)/C=C/c1cccc(NC(=O)C(=O)NCC(C)(C)CNC(=O)c2ccc(Nc3nc(NC4(c5ccc(Cl)cc5)CC4)nc(OCC(F)(F)F)n3)cc2)c1 [Compound 3407]	0.01 to 10 nM
O=C(NCCCCNC(=O)c1ccc(Nc2nc(NC3(c4ccc(Cl)cc4)CC3)nc(OCC(F)(F)F)n2)cc1)C(=O)NC1CCCCC1 [Compound 3398]	0.01 to 10 nM
CC(C)(CNC(=O)C(=O)Nc1ccc2ncccc2c1)CNC(=O)c1ccc(Nc2nc(NC3(c4ccc(Cl)cc4)CC3)nc(OCC(F)(F)F)n2)cc1 [Compound 3038]	0.01 to 10 nM
Cc1ccc(NC(=O)C(=O)NCC(O)CNC(=O)c2ccc(Nc3nc(NC4(c5ccc(Cl)cc5)CC4)nc(OCC(F)(F)F)n3)cc2)cc1 (stereo not drawn) [Compound 3367]	0.01 to 10 nM
COC(=O)[C@H](CNC(=O)C(=O)Nc1ccc(-c2csc(N3CCOCC3)n2)cc1)NC(=O)c1ccc(Nc2nc(NC3(c4ccc(Cl)cc4)CC3)nc(OCC(F)(F)F)n2)cc1 [Compound 3201]	0.01 to 10 nM
CC(C)(C)c1ccc(NC(=O)C(=O)NC[C@H](NC(=O)c2ccc(Nc3nc(NC4(c5ccc(Cl)cc5)CC4)nc(OCC(F)(F)F)n3)cc2)C(=O)O)cc1 [Compound 3294]	0.01 to 10 nM
